Measurements as given in patent publication US7662781B2, “Immunopotentiating agent” (ECI, Inc., priority 2005, dated 2010).

B1: MIP-1α: molecule of about 70 amino acids belonging to the C—C chemokine family, ligand for CCR1 and CCR5 (protein, UniProt P10147 24-92, looked up)
C-C motif chemokine 3: SLAADTPTACCFSYTSRQIPQNFIADYFETSSQCSKPGVIFLTKRSRQVCADPSEEWVQKYVSDLELSA

Legend:
[1] = test system: Lewis lung carcinoma (3LL); experiment: Lung metastasis system of intravenously injected 3LL; type: in vivo, C57BL/6 mice; conditions: 25 mg/mouse, twice a week
Protocol: By using a lung metastasis system of Lewis lung carcinoma (3LL), the tumor metastasis inhibition effect of eMIP was evaluated. Female C57BL/6 mice aged 7 weeks were employed. 10^6 3LL cells were injected into each animal via the tail vein. After 25 days, the lungs were taken out, weighed and fixed with Bouin' solution. Then, cancer tissues metastasized into the lungs were counted under a stereoscopic microscope. 30 minutes after the 3LL transplantation, eMIP was injected as the first administration followed by continuous administration once a week for 4 weeks. In the system wherein the administration was initiated 7 days after the 3LL transplantation, the effect of eMIP was examined. 5Fu employed as a control was administered twice a week.

[2] = test system: dendritic cell precursors; conditions: Yoneyama 2001; Zhang 2004; cited from earlier work

Molecule	inhibition rate of metastasis into the lungs [1]	mobilization of dendritic cell precursors in the blood [2]
O=c1[nH]cc(F)c(=O)[nH]1 [5Fu]	78%	–
B1	–	several ten-fold
